{
  "source": "paper PMC6400998",
  "about": "“Soy Isoflavone Extract Does Not Increase the Intoxicating Effects of Acute Alcohol Ingestion in Human Volunteers” (Frontiers in Pharmacology, 2019)",
  "key": {"[1]": {"tested_on": "healthy male volunteers", "assay": "Physiological effects (vital signs: SBP, DBP, HR, oral and cutaneous facial temperature) after alcohol with or without soy extract", "conditions": "difference with respect to baseline; for FT Emax: cutaneous facial temperature", "procedure": "(§1) The study was a randomized, single-blinded (the participants were informed that they could receive different doses of alcohol in the two sessions), and crossover clinical trial. Subjects participated in two different experimental sessions separated by at least 3 days. In one session they received a glass of water (240 mL) and 2 h later a single oral dose of alcohol was administered (0.5 g/kg, Vodka Absolut® 40°, Sweden); in the other, they were given four capsules containing a soy extract product with a glass of water (240 mL) and 2 h later the same dose of alcohol.\nNon-invasive systolic blood pressure (SBP), diastolic blood pressure (DBP), heart rate (HR), oral and cutaneous facial temperature (OT, FT) were repeatedly recorded at baseline, immediately before capsule administration, and at 2 (immediately before beverage administration), 2.5, 3, 4, 5, 6, 8, and 10 h after first administration. All assessments were carried out with a DinamapTM 8100-T vital signs monitor (Critikon, Tampa, FL, United States). Cutaneous facial temperature was measured at the same time with an additional monitor (Critikon, Tampa, FL, United States).\n(§2) Differences with respect to baseline were calculated for vital signs (SBP, DBP, HR, and OT-FT) and subjective effects (VAS, ARCI). Maximum/peak effects (Emax) and the time to reach maximum effects (tmax) were also determined for the previously mentioned variables. The area under the curve of the concentrations from 0 to 10 h (AUC0-10 h) using the trapezoidal rule was calculated for vital signs and subjective effects.\n(§3) For the statistical comparison of AUC and Emax a Student’s t-test for paired samples was employed. For tmax a non-parametric Wilcoxon test was used. A repeated measure ANOVA with two factors (treatment and time) was used to compare the time course of effects. When treatment or the treatment × time interaction was statistically significant, multiple Tukey post hoc comparisons were performed at each time point."}, "[2]": {"tested_on": "healthy male volunteers", "assay": "Subjective and adverse effects by visual analog scales (VAS, 100 mm)", "procedure": "as §1\nSubjective effects were evaluated using a set of visual analog scales (VAS) at baseline (0 h), 2, 2.25, 2.5, 2.75, 3, 3.5, 4, 5, 6, 8, and 10 h after first administration. VAS (100 mm) were labeled with different adjectives marked at opposite ends from “not at all” to “extremely” ([Peiró et al., 2013]; [Farré et al., 2015]; [Papaseit et al., 2016]). Subjects were asked to rate effects of drunkenness, content, nausea, vertigo, dizziness, feeling of face flushing, headache, and breathing difficulty.\nas §2, §3"}, "[3]": {"tested_on": "healthy male volunteers", "assay": "Addiction Research Center Inventory (ARCI) 49-item short form questionnaire", "format": "in vivo, human", "conditions": "n = 10"}, "[4]": {"assay": "Pharmacokinetics of alcohol (ethanol) in plasma", "procedure": "as §1\nBlood samples and ethanol breath concentrations were collected at baseline (before soy extract administration), and at 2 (before ethanol administration), 2.25, 2.5, 2.75, 3, 4, 5, 6, 7, 8, 10, and 24 h after soy extract administration. Ethanol was determined in blood (DRI® Ethyl Alcohol Assay, Thermo Fisher, Fremont, CA, United States) and breath (Alcotest, Dräger, Germany). Daidzein, genistein, and the endogenous metabolite equol were determined by liquid chromatography coupled to tandem mass spectrometry (LC/MS/MS) using a validated method ([Rodríguez-Morató et al., 2015]).\nPeak concentration (Cmax), time to reach peak concentrations (Tmax), and area under the concentration-time curve from 0 to 10 h (AUC0-10) from ethanol plasma concentrations over time were determined using Pharmacokinetic Functions for Microsoft Excel (Joel Usansky, Atul Desai, and Diane Tang-Liu, Department of Pharmacokinetics and Drug Metabolism, Allergan, Irvine, CA, United States)."}, "[5]": {"assay": "Plasma concentrations of daidzein, genistein and equol after soy extract (LC/MS/MS)", "conditions": "for Tmax / Cmax: human", "procedure": "as §1\nA commercial soy extract product (Super-Absorbable Soy Isoflavones®, hard gelatin capsules, Life-Extension, United States) was employed. According to the manufacturer each capsule contained 54 mg of total isoflavones (22 mg daidzin-daidzein, 28 mg genistin-genistein, and 4 mg glycitin-glycitein).\nEthanol was determined in blood (DRI® Ethyl Alcohol Assay, Thermo Fisher, Fremont, CA, United States) and breath (Alcotest, Dräger, Germany)."}, "[6]": {"tested_on": "male mice", "design": "method as in Martin et al., 2013", "conditions": "ref Martin et al., 2013; cited from earlier work"}, "[7]": {"conditions": "difference with respect to baseline, AUC 0-10 h, n = 10"}, "[8]": {"conditions": "difference with respect to baseline, peak effect, n = 10"}, "[9]": {"conditions": "alcohol 0.5 g/kg oral, 2 h after soy extract (four capsules) or water, Mean ± SD, n = 10"}},
  "data": [
    {"smiles": "CCO", "note": "[Alcohol, ethanol]", "values": [
      {"measurement": "FT Emax", "setting": "[1]; peak effect, n = 10", "value": "1.59 ± 0.67", "unit": "°C"},
      {"measurement": "FT Emax", "setting": "[1]; peak effect, n = 10, listed as alcohol", "value": 1.59, "unit": "°C"},
      {"measurement": "DBP Emax", "setting": "[1]; diastolic blood pressure, peak effect, n = 10", "value": "–10.5 ± 8.72 mmHg"},
      {"measurement": "HR Emax", "setting": "[1]; heart rate, peak effect, n = 10", "value": "–1.2 ± 15.26 beats/min"},
      {"measurement": "OT Emax", "setting": "[1]; oral temperature, peak effect, n = 10", "value": "–0.23 ± 0.47"},
      {"measurement": "SBP Emax", "setting": "[1]; systolic blood pressure, peak effect, n = 10", "value": "–9.2 ± 11.05 mmHg"},
      {"measurement": "reduction of DBP at 2 h", "setting": "[1]; time course, 2 h after first administration, p < 0.05", "value": -2.89},
      {"measurement": "reduction of DBP at 3 h", "setting": "[1]; time course, 3 h after first administration, p < 0.05", "value": -4.5},
      {"measurement": "reduction of DBP at 4 h", "setting": "[1]; time course, 4 h after first administration, p < 0.01", "value": -9.67},
      {"measurement": "reduction of DBP at 8 h", "setting": "[1]; time course, 8 h after first administration, p < 0.05", "value": -4.78},
      {"measurement": "VAS score for headache at 8 h", "setting": "[2]; 8 h after first administration, p < 0.01", "value": 16, "unit": "mm"},
      {"measurement": "VAS Content AUC0-10", "setting": "[2]; [7]", "value": "29.91 ± 47.07"},
      {"measurement": "VAS Drunkenness AUC0-10", "setting": "[2]; [7]", "value": "25.387 ± 35.1"},
      {"measurement": "VAS Breathing difficulty Emax", "setting": "[2]; [8]", "value": 0, "unit": "mm"},
      {"measurement": "VAS Content Emax", "setting": "[2]; [8]", "value": "23.9 ± 26.2", "unit": "mm"},
      {"measurement": "VAS Dizziness Emax", "setting": "[2]; [8]", "value": "10.9 ± 18.3", "unit": "mm"},
      {"measurement": "VAS Drunkenness Emax", "setting": "[2]; [8]", "value": "20.8 ± 19.1", "unit": "mm"},
      {"measurement": "VAS Face flushing Emax", "setting": "[2]; [8]", "value": "9.6 ± 14.9", "unit": "mm"},
      {"measurement": "VAS Headache Emax", "setting": "[2]; [8]", "value": "16.2 ± 27.9", "unit": "mm"},
      {"measurement": "VAS Nausea Emax", "setting": "[2]; [8]", "value": "0.8 ± 1.75", "unit": "mm"},
      {"measurement": "VAS Vertigo Emax", "setting": "[2]; [8]", "value": "2.2 ± 6.9", "unit": "mm"},
      {"measurement": "ARCI-MBG AUC0-10", "setting": "[3]; euphoria subscale, AUC 0-10 h", "value": "3.4 ± 3.2"},
      {"measurement": "ARCI-MBG Emax", "setting": "[3]; euphoria subscale, difference with respect to baseline, peak effect", "value": "2.7 ± 3.3"},
      {"measurement": "ARCI-LSD Emax", "setting": "[3]; first ARCI-LSD line of Table 1 (r36), dysphoria and somatic symptoms subscale, peak effect", "value": "5.2 ± 1.7"},
      {"measurement": "ARCI-LSD AUC0-10", "setting": "[3]; first ARCI-LSD line of Table 1 (r37), AUC 0-10 h", "value": "43.2 ± 8.27"},
      {"measurement": "ARCI-BG ARCI-A Emax", "setting": "[3]; line printed ARCI-BG ARCI-A (r40), peak effect", "value": "1.8 ± 1.686"},
      {"measurement": "ARCI-BG ARCI-A AUC0-10", "setting": "[3]; line printed ARCI-BG ARCI-A (r41), AUC 0-10 h", "value": "4.5 ± 4.47"},
      {"measurement": "ARCI-LSD Emax", "setting": "[3]; second line printed ARCI-LSD in Table 1 (r38), peak effect", "value": "4.6 ± 1.07"},
      {"measurement": "ARCI-LSD AUC0-10", "setting": "[3]; second line printed ARCI-LSD in Table 1 (r39), AUC 0-10 h", "value": "36.7 ± 5.5"},
      {"measurement": "ARCI-PCAG AUC0-10", "setting": "[3]; sedation subscale, AUC 0-10 h", "value": "14.05 ± 14.2"},
      {"measurement": "ARCI-PCAG Emax", "setting": "[3]; sedation subscale, difference with respect to baseline, peak effect", "value": "3.4 ± 3.59"},
      {"measurement": "alcohol concentrations in plasma 10 h after drug administration", "setting": "[4]; 10 h after drug administration", "value": "undetectable"},
      {"measurement": "AUC0-10 of alcohol in plasma", "setting": "[4]; [9]", "value": "219.67 ± 27.2", "unit": "ng/mL/h"},
      {"measurement": "Cmax of alcohol in plasma", "setting": "[4]; [9]", "value": "77 ± 22.25", "unit": "ng/mL"}
    ]},
    {"smiles": "O=c1c(-c2ccc(O)cc2)coc2cc(O)ccc12", "note": "[daidzein]", "values": [
      {"measurement": "time of peak plasma concentration", "setting": "[5]; after four capsules of soy extract, oral, n = 10", "value": "around 6 h"},
      {"measurement": "Tmax", "setting": "[5]; plasma, oral, 4 capsules, Tmax for the first peak, first of double peaks in plasma after soy extract", "value": "2 to 4", "unit": "h"},
      {"measurement": "Cmax", "setting": "[5]; plasma, po, 4 capsules", "value": 1020, "unit": "ng/mL"},
      {"measurement": "Tmax", "setting": "[5]; plasma, po, 4 capsules, time of peak plasma concentration, after four capsules of soy extract, oral, n = 10", "value": 6.1, "unit": "h"},
      {"measurement": "cocaine-reinforcing effects", "setting": "[6]", "value": "decreased"},
      {"measurement": "cue-induced cocaine relapse", "setting": "[6]", "value": "reduced"}
    ]},
    {"smiles": "Oc1ccc([C@H]2COc3cc(O)ccc3C2)cc1", "note": "[equol]", "values": [
      {"measurement": "Tmax", "setting": "[5]; in vivo, po, time of peak plasma concentration", "value": 24, "unit": "h"}
    ]},
    {"smiles": "O=c1c(-c2ccc(O)cc2)coc2cc(O)cc(O)c12", "note": "[genistein]", "values": [
      {"measurement": "Tmax", "setting": "[5]; in vivo, 4 capsules, Tmax for the first peak, first of double peaks in plasma after soy extract", "value": "2 to 4", "unit": "h"},
      {"measurement": "Cmax", "setting": "[5]; in vivo, po, 4 capsules", "value": 1040, "unit": "ng/mL"},
      {"measurement": "Tmax", "setting": "[5]; in vivo, po, 4 capsules, time of peak plasma concentration, after four capsules of soy extract, oral, n = 10", "value": 7.3, "unit": "h"},
      {"measurement": "cocaine-reinforcing effects", "setting": "[6]", "value": "decreased"},
      {"measurement": "cue-induced cocaine relapse", "setting": "[6]", "value": "not"}
    ]}
  ]
}
